The target in test [1] is T1, hRORg (Homo sapiens, UniProt P51449).
T1 construct: expressed in transfected cells; host or cells: HG5LN (HeLa line with a GAL4-driven luciferase reporter)
T1 sequence (P51449 269-508 limits assumed): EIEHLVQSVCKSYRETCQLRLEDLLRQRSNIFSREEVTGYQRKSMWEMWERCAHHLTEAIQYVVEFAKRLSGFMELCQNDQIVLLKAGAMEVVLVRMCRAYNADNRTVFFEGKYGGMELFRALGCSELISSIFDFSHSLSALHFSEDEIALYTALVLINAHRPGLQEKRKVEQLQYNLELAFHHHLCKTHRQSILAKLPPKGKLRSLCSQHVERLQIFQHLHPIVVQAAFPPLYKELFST
Description: GAL4-RORγ transactivation (luciferase reporter, HG5LN HeLa line). The format is cell-based. The note with it: HG5LN cells, 18 hours incubation, luciferase luminescence. From the text: GAL4-RORγ Transactivation
The RORγ transactivation model was developed from the line HG5LN, which is a HeLa line that stably expresses a luciferase reporter gene controlled by a pentamer of the GAL4 recognition domain of yeast and of a β-globin promoter. The HG5LN line was stably transfected by the DNA-binding domain (DBD) of GAL4 fused to the ROR gamma ligand-binding domain (LBD). Molecules that inhibit the ROR gamma constitutive activity reduce the luciferase expression, thus leading to a reduction in the emitted luminescence.
The cells are seeded in 384-well plates (5000 cells in 45 μL/well of culture medium containing 10% fetal calf serum) and incubated for 4 hours at 37° C., 5% CO2. 5 μL of the test molecules (compounds described in the tables described above) are then added to each well and the plates are incubated for 18 hours at a temperature of 37° C. under 5% of CO2. 20 μL of luciferase substrate (Promega) are added to each well and the luminescence emitted is read by a microplate reader.
The luminescence units (“RLU”) are normalized by positive controls (“POS” containing a saturated concentration of N-(2,2,2-trifluoroethyl)-N-[4-[2,2,2-trifluoro-1-hydroxy-1-(trifluoromethyl)ethyl]phenyl]benzenesulfonamide) and negative controls (“NEG” containing DMSO): % inhibition=((RLU-NEG)*100)/(POS-NEG). The IC50 values are calculated from a 4-parameter logistic model using the XLFit software (IDBS).
(In general: In a reporter assay the amount or activity of a reporter protein is the signal.)

The test system of test [2] is IL-17A secretion by CD4+ cells. Nature of the test: IL-17A secretion by CD4+ cells (HTRF). The format is cell-based. As to conditions: human CD4+ cells activated with anti-CD3 and anti-CD28, 4 days of incubation, IL-17A by HTRF, read-out: IC50 hCD4/IL17. How it is done:
This model allows measurement of the effect of inhibitors on IL-17A secretion by CD4+ cells. The cells are frozen CD4+ cells (STEMCELL, #70026), isolated from peripheral human blood and activated with anti-CD3 and anti-CD28 antibodies. The amount of IL-17A secreted is measured by the TR-FRET (kit HTRF® Human Interleukin 17A (Cisbio, #64H17PEC)) technology.
The cells are rapidly thawed, resuspended in their culture medium (RPMI inactivated 10% FCS) supplemented with soluble anti-CD28 antibodies and seeded (100 000 cells/well) in 96-well plates precoated with anti-CD3 antibodies. The cells are then treated with the ranges of inhibitors to be tested (from 1000 nM to 0.05 nM, 0.1% DMSO). After 4 days of incubation, the HTRF signal is measured using a microplate reader (excitation=337 nm, λemission=620/665 nm). The ratios obtained (665/620) are normalized relative to the positive control (cells activated with anti-CD3 and anti-CD28, 0.1% DMSO). The IC50 values are calculated from a 4-parameter logistic model using the XLFit software (IDBS).

In patent publication US10618890B2, “Benzimidazole sulfonamide derivatives as inverse agonists of retinoid-related orphan receptor gamma (ROR gamma (T))” (GALDERMA RESEARCH & DEVELOPMENT, priority 2014, dated 2020) one finds IC50 data, which are given here for 21 molecules.

Where two headings read alike, the source gives them in different places. Bounds are passed on as bounds.

As for `CCc1ccc(N(CC(C)C)S(=O)(=O)c2ccc3c(c2)n(CC2CCOCC2)c(=O)n3C)cc1` [Compound 1, 1-methyl-2-oxo-3-(tetrahydropyran-4-ylmethyl)-2,3-dihydro-1H-benzimidazole-5-sulfonic acid (4-ethylphenyl)isobutylamide], the IC50 in test [1] was over 1000 nM.
With `CCc1ccc(N(CC(C)C)S(=O)(=O)c2ccc3c(c2)[nH]c(=O)n3CC2CCOCC2)cc1` [Compound 2, 2-oxo-1-(tetrahydropyran-4-ylmethyl)-2,3-dihydro-1H-benzimidazole-5-sulfonic acid (4-ethylphenyl)isobutylamide], the IC50 in test [2] (Homo sapiens, 96 h) was under 100 nM; in test [1] it was under 100 nM.
Consider `CCc1ccc(N(CC(C)C)S(=O)(=O)c2ccc3[nH]c(=O)n(CC4CCOCC4)c3c2)cc1` [Compound 3, 2-oxo-3-(tetrahydropyran-4-ylmethyl)-2,3-dihydro-1H-benzimidazole-5-sulfonic acid (4-ethylphenyl)isobutylamide], for which the IC50 in test [2] (Homo sapiens, 96 h) was under 100 nM; in test [1], 100 to 1000 nM.
Taken in the same sequence, the figures for `CCc1ccc(N(CC(C)C)S(=O)(=O)c2ccc3c(c2)[nH]c(=O)n3CC2(C)CCOCC2)cc1` [Compound 4, 1-(4-methyltetrahydropyran-4-ylmethyl)-2-oxo-2,3-dihydro-1H-benzimidazole-5-sulfonic acid (4-ethylphenyl)isobutylamide] were under 100 nM and under 100 nM.
Taken in the same sequence, the figures for `CCc1ccc(N(CC(C)C)S(=O)(=O)c2ccc3c(c2)[nH]c(=O)n3CC2(F)CCOCC2)cc1` [Compound 5, 1-(4-fluorotetrahydropyran-4-ylmethyl)-2-oxo-2,3-dihydro-1H-benzimidazole-5-sulfonic acid (4-ethylphenyl)isobutylamide] were under 100 nM and under 100 nM.
The molecule `CCc1ccc(N(CC(C)C)S(=O)(=O)c2ccc3c(c2)[nH]c(=O)n3C[C@H]2[C@@H]3COC[C@@H]32)cc1` [Compound 6, 1-[(1R,5S,6S)-1-(3-oxabicyclo[3.1.0]hex-6-yl)methyl]-2-oxo-2,3-dihydro-1H-benzimidazole-5-sulfonic acid (4-ethylphenyl)isobutylamide] gave an IC50 in test [1] of under 100 nM.
Regarding `CCc1ccc(N(CC(C)C)S(=O)(=O)c2ccc3c(c2)[nH]c(=O)n3CC2COC2)cc1` [Compound 7, 1-oxetan-3-ylmethyl-2-oxo-2,3-dihydro-1H-benzimidazole-5-sulfonic acid (4-ethylphenyl)isobutylamide], the IC50 is under 100 nM in test [2] (Homo sapiens, 96 h) and under 100 nM in test [1].
`CCc1ccc(N(CC(C)C)S(=O)(=O)c2ccc3c(c2)[nH]c(=O)n3CC2COC(=O)O2)cc1` (stereo not shown) [Compound 8, 2-oxo-1-(2-oxo[1,3]dioxolan-4-ylmethyl)-2,3-dihydro-1H-benzimidazole-5-sulfonic acid (4-ethylphenyl)isobutylamide] showed an IC50 in test [1] of under 100 nM.
On the same count and under the same terms, as for `CCc1ccc(N(CC(C)C)S(=O)(=O)c2ccc3c(c2)[nH]c(=O)n3CC2CNC(=O)O2)cc1` (stereo not shown) [Compound 9, 2-oxo-1-(2-oxooxazolidin-5-ylmethyl)-2,3-dihydro-1H-benzimidazole-5-sulfonic acid (4-ethylphenyl)isobutylamide], the figure is over 1000 nM.
For the molecule `CCc1ccc(N(CC(C)C)S(=O)(=O)c2ccc3c(c2)[nH]c(=O)n3Cc2ccncc2)cc1` [Compound 10, 2-oxo-1-pyridin-4-ylmethyl-2,3-dihydro-1H-benzimidazole-5-sulfonic acid (4-ethylphenyl)isobutylamide], the IC50 in test [2] (Homo sapiens, 96 h) was under 100 nM; in test [1] it was 100 to 1000 nM.
Molecule `CCc1ccc(N(CC(C)C)S(=O)(=O)c2ccc3c(c2)[nH]c(=O)n3C2CCOCC2)cc1` [Compound 11, 2-oxo-1-(tetrahydropyran-4-yl)-2,3-dihydro-1H-benzimidazole-5-sulfonic acid (4-ethylphenyl)isobutylamide] had an IC50 in test [1] of over 1000 nM.
Same read-out and setting: with `CCc1ccc(N(CC(C)C)S(=O)(=O)c2ccc3c(c2)[nH]c(=O)n3C2CCN(C(=O)OC(C)(C)C)CC2)cc1` [Compound 12, tert butyl ester of 4-{5-[(4-ethylphenyl)isobutylsulfamoyl]-2-oxo-2,3-dihydrobenzimidazol-1-yl}piperidine-1-carboxylic acid] the figure was over 1000 nM; with `CCc1ccc(N(CC(C)C)S(=O)(=O)c2ccc3c(c2)[nH]c(=O)n3C2CCNCC2)cc1` [Compound 13, 2-oxo-1-piperidin-4-yl-2,3-dihydro-1H-benzimidazole-5-sulfonic acid (4-ethylphenyl)isobutylamide], over 1000 nM; with `CCc1ccc(N(CC(C)C)S(=O)(=O)c2ccc3c(c2)[nH]c(=O)n3C2CCN(S(C)(=O)=O)CC2)cc1` [Compound 14, 1-(1-methanesulfonylpiperidin-4-yl)-2-oxo-2,3-dihydro-1H-benzimidazole-5-sulfonic acid (4-ethylphenyl)isobutylamide], over 1000 nM.
`CCc1ccc(N(C2CCCC2)S(=O)(=O)c2ccc3c(c2)[nH]c(=O)n3CC2CCOCC2)cc1` [Compound 15, 2-oxo-1-(tetrahydropyran-4-ylmethyl)-2,3-dihydro-1H-benzimidazole-5-sulfonic acid (4-ethylphenyl)cyclopentylamide]: the IC50 in test [2] (Homo sapiens, 96 h) was under 100 nM; in test [1], under 100 nM.
For the molecule `CCc1ccc(N(C(CC)CC)S(=O)(=O)c2ccc3c(c2)[nH]c(=O)n3CC2CCOCC2)cc1` [Compound 16, 2-oxo-1-(tetrahydropyran-4-ylmethyl)-2,3-dihydro-1H-benzimidazole-5-sulfonic acid (4-ethylphenyl)(1-ethylpropyl)amide], the IC50 in test [2] (Homo sapiens, 96 h) is under 100 nM; in test [1], under 100 nM.
On to `Cc1ccc(N(CC(C)C)S(=O)(=O)c2ccc3c(c2)[nH]c(=O)n3CC2CCOCC2)c(C)c1` [Compound 17, 2-oxo-1-(tetrahydropyran-4-ylmethyl)-2,3-dihydro-1H-benzimidazole-5-sulfonic acid (2,4-dimethylphenyl)isobutylamide], for which the IC50 was under 100 nM in test [2] (Homo sapiens, 96 h) and under 100 nM in test [1].
Turning to `Cc1ccc(N(C2CCCC2)S(=O)(=O)c2ccc3c(c2)[nH]c(=O)n3CC2CCOCC2)c(C)c1` [Compound 18, 2-oxo-1-(tetrahydropyran-4-ylmethyl)-2,3-dihydro-1H-benzimidazole-5-sulfonic acid cyclopentyl(2,4-dimethylphenyl)amide], the IC50 in test [2] (Homo sapiens, 96 h) was under 100 nM; in test [1] it was under 100 nM.
Regarding `CCC(CC)N(c1ccc(C)cc1C)S(=O)(=O)c1ccc2c(c1)[nH]c(=O)n2CC1CCOCC1` [Compound 19, 2-oxo-1-(tetrahydropyran-4-ylmethyl)-2,3-dihydro-1H-benzimidazole-5-sulfonic acid (2,4-dimethylphenyl)(1-ethylpropyl)amide], the IC50 in test [2] (Homo sapiens, 96 h) is under 100 nM; in test [1], under 100 nM.
`CCc1ccc(N(CC(C)C)S(=O)(=O)c2ccc3c(c2)[nH]c(=O)n3CC2CCS(=O)(=O)CC2)cc1` [Compound 20, 1-(1,1-dioxohexahydro-1λ^6-thiopyran-4-ylmethyl)-2-oxo-2,3-dihydro-1H-benzimidazole-5-sulfonic acid (4-ethylphenyl)isobutylamide]: the IC50 in test [2] (Homo sapiens, 96 h) is under 100 nM; in test [1], under 100 nM.
Consider `CCc1ccc(N(CC(C)C)S(=O)(=O)c2ccc3[nH]c(=O)n(CC4CCOCC4)c3c2)cc1` [Compound 21, 2-oxo-3-(tetrahydropyran-4-ylmethyl)-2,3-dihydro-1H-benzimidazole-5-sulfonic acid (4-ethylphenyl)isobutylamide], for which the IC50 in test [2] and in test [1] was 100 to 1000 nM throughout.
